Data from paper PMC10743086, “Immunofluorescence-Based Assay for High-Throughput Analysis of Multidrug Resistance Markers in Non-Small Cell Lung Carcinoma Patient-Derived Cells” (Diagnostics, 2023).

How the values were obtained:
Type in all cases: cell-based, human
[1] = system: ABCB1 expression in NCI-H460 cells; test: Immunofluorescence assay of MDR marker ABCB1 expression; settings: five concentrations, 24 h
How it was run: (§1)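 Compounds added 48 h after seeding, then 24 h exposure. Cells fixed in 4% paraformaldehyde, BSA-blocked, co-stained for ABCB1 with CK8/18 to separate cancer from stromal cells; 4x automated imaging. Cytotoxicity from cell-count scoring; ABCB1 expression from multi-wavelength cell scoring.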

[2] = system: ABCB1 expression in NCI-H460/R cells; test: as above; settings: five concentrations, 24 h
How it was run: as §1

[3] = system: ABCB1 expression in MRC-5 cells; test: as above; settings: five concentrations, 24 h
How it was run: as §1

MRC-5 cells = test: Cytotoxicity by immunofluorescence cell scoring (cell counts), normal fibroblasts; settings: Homo sapiens, 24 h treatment
How it was run: as §1

[4] = system: ABCG2 expression in cancer cells (CK8/18+); test: Immunofluorescence assay of ABCG2 expression in patient-derived NSCLC cultures; settings: 7 days
How it was run: (§2)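 Cancer and non-cancer populations are told apart by a CK8/18 antibody cocktail after paraformaldehyde fixation and BSA blocking, with secondary antibodies applied 2 h at RT. Cultures derive from dissociated NSCLC resections, seeded 1000 cells/well. Compound exposure lasts 7 days, from 72 h post-seeding.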

NCI-H460 cells = test: Cytotoxicity by immunofluorescence cell scoring (cell counts), NSCLC cell line; settings: Homo sapiens, NCI-H460, 24 h, 24 h treatment
How it was run: as §1

[5] = system: ABCC1 expression in cancer cells (CK8/18+); test: Immunofluorescence assay of ABCC1 expression in patient-derived NSCLC cultures; settings: 7 days
How it was run: as §2

NCI-H460/R cells = test: Cytotoxicity by immunofluorescence cell scoring (cell counts), multidrug-resistant NSCLC cell line; settings: Homo sapiens, 24 h treatment
How it was run: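 ABCB1-overexpressing NCI-H460/R cells, doxorubicin-selected, treated 48 h after seeding for 24 h. Cytotoxicity from automated imaging cell counts after fixation and CK8/18 plus MDR-marker immunostaining, using cell-scoring analysis.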

[6] = system: Cancer cells (CK8/18+) of patient-derived NSCLC cultures; test: Cytotoxicity in patient-derived NSCLC cultures, cancer cells; settings: Homo sapiens, 168 h, 7 days treatment
How it was run: as §2

[7] = NCI-H460 (co-culture with MRC-5)
[8] = NCI-H460/R (co-culture with MRC-5)
[9] = MRC-5 (co-culture with NCI-H460)
[10] = MRC-5 (co-culture with NCI-H460/R)
[11] = MRC5, 24 h, MRC-5 (co-culture with NCI-H460)
[12] = MRC5, 24 h, MRC-5 (co-culture with NCI-H460/R)
[13] = culture TR58, cancer cells (CK8/18+)
[14] = culture TR64, cancer cells (CK8/18+)
[15] = culture TR65, cancer cells (CK8/18+)
[16] = culture TR84, cancer cells (CK8/18+)
[17] = culture TR87, cancer cells (CK8/18+)

| Structure (SMILES) | ABCB1 Expression [1, 7] | ABCB1 Expression ([1]; NCI-H460 monoculture) | ABCB1 Expression [2, 8] | ABCB1 Expression ([2]; NCI-H460/R monoculture) | ABCB1 Expression [3, 9] | ABCB1 Expression [3, 10] | ABCB1 Expression ([3]; MRC-5 monoculture) | IC50 (MRC-5 cells; [11]) [µM] | IC50 (MRC-5 cells; MRC5, 24 h, MRC-5 monoculture) [µM] | ABCG2 expression [4, 13] | ABCG2 expression [4, 14] | ABCG2 expression [4, 15] | ABCG2 expression [4, 16] | ABCG2 expression [4, 17] | IC50 (NCI-H460 cells; [7]) [µM] | IC50 (NCI-H460 cells; NCI-H460 monoculture) [µM] | ABCC1 expression [5, 13] | ABCC1 expression [5, 14] | ABCC1 expression [5, 15] | ABCC1 expression [5, 16] | other results |
| --- | --- | --- | --- | --- | --- | --- | --- | --- | --- | --- | --- | --- | --- | --- | --- | --- | --- | --- | --- | --- | --- |
| Nc1ccn([C@@H]2O[C@H](CO)[C@@H](O)C2(F)F)c(=O)n1 [Gemcitabine, gemcitabine] | no change | no change | no change | no change | no change | no change | no change | > 100 | > 100 | increase (An increase in ABCB1, ABCC1, or ABCG2 expression of at least 20% at a minimum of one concentration is shown in the table.) | increase (An increase in ABCB1, ABCC1, or ABCG2 expression of at least 20% at a minimum of one concentration is shown in the table.) | increase (An increase in ABCB1, ABCC1, or ABCG2 expression of at least 20% at a minimum of one concentration is shown in the table.) | increase (An increase in ABCB1, ABCC1, or ABCG2 expression of at least 20% at a minimum of one concentration is shown in the table.) | increase (An increase in ABCB1, ABCC1, or ABCG2 expression of at least 20% at a minimum of one concentration is shown in the table.) | 34.6 | 41.6 | no change | increase (An increase in ABCB1, ABCC1, or ABCG2 expression of at least 20% at a minimum of one concentration is shown in the table.) | increase (An increase in ABCB1, ABCC1, or ABCG2 expression of at least 20% at a minimum of one concentration is shown in the table.) | increase (An increase in ABCB1, ABCC1, or ABCG2 expression of at least 20% at a minimum of one concentration is shown in the table.) | IC50 (MRC-5 cells; [12]): > 100 µM; ABCC1 expression [5, 17]: increase (An increase in ABCB1, ABCC1, or ABCG2 expression of at least 20% at a minimum of one concentration is shown in the table.); IC50 (NCI-H460/R cells; [8]): 29.4 µM; IC50 (NCI-H460/R cells; NCI-H460/R monoculture): 33.6 µM; IC50 [6, 13]: 2.55 µM; IC50 [6, 14]: 4.92 µM; IC50 [6, 15]: 4.91 µM; IC50 [6, 16]: 2.68 µM; IC50 [6, 17]: 3.41 µM |
| CC(=O)O[C@H]1C(=O)[C@@]2(C)[C@H]([C@H](OC(=O)c3ccccc3)[C@]3(O)C[C@H](OC(=O)[C@H](O)[C@@H](NC(=O)c4ccccc4)c4ccccc4)C(C)=C1C3(C)C)[C@]1(OC(C)=O)CO[C@@H]1C[C@@H]2O [Paclitaxel, paclitaxel] | increase (An increase in ABCB1 expression of at least 20% at a minimum of one concentration is shown in the table.) | increase (An increase in ABCB1 expression of at least 20% at a minimum of one concentration is shown in the table.) | no change | no change | no change | no change | no change | > 5 | > 5 | increase (An increase in ABCB1, ABCC1, or ABCG2 expression of at least 20% at a minimum of one concentration is shown in the table.) | increase (An increase in ABCB1, ABCC1, or ABCG2 expression of at least 20% at a minimum of one concentration is shown in the table.) | increase (An increase in ABCB1, ABCC1, or ABCG2 expression of at least 20% at a minimum of one concentration is shown in the table.) | increase (An increase in ABCB1, ABCC1, or ABCG2 expression of at least 20% at a minimum of one concentration is shown in the table.) | increase (An increase in ABCB1, ABCC1, or ABCG2 expression of at least 20% at a minimum of one concentration is shown in the table.) | 0.339 | 0.381 | no change | increase (An increase in ABCB1, ABCC1, or ABCG2 expression of at least 20% at a minimum of one concentration is shown in the table.) | increase (An increase in ABCB1, ABCC1, or ABCG2 expression of at least 20% at a minimum of one concentration is shown in the table.) | increase (An increase in ABCB1, ABCC1, or ABCG2 expression of at least 20% at a minimum of one concentration is shown in the table.) | IC50 (MRC-5 cells; [12]): > 5 µM; ABCC1 expression [5, 17]: increase (An increase in ABCB1, ABCC1, or ABCG2 expression of at least 20% at a minimum of one concentration is shown in the table.); IC50 (NCI-H460/R cells; [8]): > 5 µM; IC50 (NCI-H460/R cells; NCI-H460/R monoculture): > 5 µM; IC50 [6, 13]: 1.18 µM; IC50 [6, 14]: 1.35 µM; IC50 [6, 15]: 1.18 µM; IC50 [6, 16]: 2.57 µM; IC50 [6, 17]: 4.79 µM |
| Nc1nc2[nH]cc(CCc3ccc(C(=O)N[C@@H](CCC(=O)O)C(=O)O)cc3)c2c(=O)[nH]1 [Pemetrexed, pemetrexed] | no change | no change | no change | no change | no change | no change | no change | > 300 | > 300 | no change | no change | no change | increase (An increase in ABCB1, ABCC1, or ABCG2 expression of at least 20% at a minimum of one concentration is shown in the table.) | no change | > 300 | > 300 | no change | no change | increase (An increase in ABCB1, ABCC1, or ABCG2 expression of at least 20% at a minimum of one concentration is shown in the table.) | increase (An increase in ABCB1, ABCC1, or ABCG2 expression of at least 20% at a minimum of one concentration is shown in the table.) | IC50 (MRC-5 cells; MRC5, MRC-5 (co-culture with NCI-H460/R)): > 300 µM; ABCC1 expression [5, 17]: increase (An increase in ABCB1, ABCC1, or ABCG2 expression of at least 20% at a minimum of one concentration is shown in the table.); IC50 (NCI-H460/R cells; [8]): > 300 µM; IC50 (NCI-H460/R cells; NCI-H460/R monoculture): > 300 µM; IC50 [6, 13]: 181 µM; IC50 [6, 14]: 252 µM; IC50 [6, 15]: 231 µM; IC50 [6, 16]: > 300 µM; IC50 [6, 17]: > 300 µM |
